The source of these data is patent publication US20250340911A1, “METHOD FOR PRODUCING FROM FATTY ALCOHOLS MONOMERS FOR PRODUCING VARIOUS SYNTHETIC RESINS” (priority 2022, published 2025).

The series relates to recombinant Candida tropicalis Ct6 strain. Kind of series: Cytotoxicity of synthesized (biomass-derived) dialkyl ethers to recombinant strain, growth by absorbance at 600 nm. It counts as cell-based. The conditions noted are these: 0-5% ether in YPD medium, 48-well plate, 24 hours or more, ether synthesized in Example 1. As for the experimental part: The cytotoxicity of the dioctyl ether synthesized as described above was analyzed. 200 μl of a mixed solution of YPD medium (10 g/L yeast extract, 20 g/L Bacto peptone, 20 g/L glucose) and each concentration (0, 0.25, 0.5, 1, 2, 3, 4, or 5%) of dioctyl ether was added to each well of a 48-well plate. After 2 μl of a culture of a recombinant Candida tropicalis Ct6 strain cultured overnight in YPD medium at 30° C. and 200 rpm was further added to each well, the absorbance at 600 nm was measured using a plate reader at 30° C. for 24 hours or more at 15-minute intervals. The maximum specific growth rate (μm) and lag time were calculated using the Gompertz growth equation.
The cytotoxicity of the didodecyl ether synthesized as described above was analyzed. 200 μl of a mixed solution of YPD medium and each concentration (0, 0.25, 0.5, 1, 2, 3, 4, or 5%) of didodecyl ether was added to each well of a 48-well plate. After 2 μl of a culture of a recombinant Candida tropicalis Ct6 strain cultured overnight in YPD medium at 30° C. and 200 rpm was further added to each well, the absorbance at 600 nm was measured using a plate reader at 33° C. for 24 hours or more at 15-minute intervals. The maximum specific growth rate and lag time were calculated using the Gompertz growth equation.

As for `CCCCCCCCCCCCOCCCCCCCCCCCC` [Didodecyl ether, didodecyl ether], the “cytotoxicity (maximum specific growth rate and lag time, Gompertz growth equation)” value is given as “almost no cytotoxicity”. With `CCCCCCCCOCCCCCCCC` [Dioctyl ether, dioctyl ether], the “cytotoxicity (maximum specific growth rate and lag time, Gompertz growth equation)” value was “almost no cytotoxicity”.
